Values of other authors in PMC11938273 (Journal of Chemical Information and Modeling, 2025).

Settings: in vivo; cited from earlier work

| SMILES | CNS status |
| --- | --- |
| CC(C)c1nc(CN(C)C(=O)N[C@H](C(=O)N[C@@H](Cc2ccccc2)C[C@H](O)[C@H](Cc2ccccc2)NC(=O)OCc2cncs2)C(C)C)cs1 [Ritonavir, (1E,2S)-N-[(2S,4S,5S)-4-Hydroxy-5-{(E)-[hydroxy(1,3-thiazol-5-ylmethoxy)methylene]amino}-1,6-diphenyl-2-hexanyl]-2-[(E)-(hydroxy{[(2-isopropyl-1,3-thiazol-4-yl)methyl](methyl)amino}methylene)amino]-3-methylbutanimidic acid] | Efflux transporter substrate |
| COc1cc([C@@H]2c3cc4c(cc3[C@@H](O[C@@H]3O[C@@H]5CO[C@@H](C)O[C@H]5[C@H](O)[C@H]3O)[C@H]3COC(=O)[C@H]23)OCO4)cc(OC)c1O [Etoposide, (5S,5aR,8aR,9R)-9-(4-Hydroxy-3,5-dimethoxyphenyl)-8-oxo-5,5a,6,8,8a,9-hexahydrofuro[3′,4′:6,7]naphtho[2,3-d][1,3]dioxol-5-yl 4,6-O-[(1R)-ethylidene]-β-D-glucopyranoside] | Efflux transporter substrate |
| CN(C(=O)C(c1ccccc1)c1ccccc1)[C@H](CN1CC[C@H](O)C1)c1ccccc1 [Asimadoline, N-{(1S)-2-[(3S)-3-Hydroxy-1-pyrrolidinyl]-1-phenylethyl}-Nmethyl-2,2-diphenylacetamide] | Efflux transporter substrate |
| COC(=O)c1ccccc1-c1c2ccc(=N)cc-2oc2cc(N)ccc12 [Rhodamine 123, 6-Amino-9-[2-(methoxycarbonyl)phenyl]-3H-xanthen-3-iminium] | Efflux transporter substrate |
| CN1[C@H]2CC[C@@H]1[C@@H](C(=O)OCCF)[C@@H](c1ccc(I)cc1)C2 [2-FE-beta-CIT, (1R,2S,3S,5S)-2-fluoroethyl-3-(4-iodophenyl)-8-methyl-8-azabicyclo[3.2.1]octane-2-carboxylate] | Positive |
| CN1Cc2c(C(=O)OCCF)ncn2-c2ccc(F)cc2C1=O [Fluoroethylflumazenil (FFMZ), 2-Fluoroethyl 8-fluoro-5-methyl-6-oxo-5,6-dihydro-4H-benzo [f]imidazo[1,5-a] [1, 4]diazepine-3-carboxylate] | Positive |
| CCSC(=O)c1c(CC)nc(-c2ccccc2)c(C(=O)OCC[18F])c1CC [FE@SUPPY, 5-(2-[18F]fluoroethyl)2,4-diethyl-3-(ethylsulfanylcarbonyl)-6-phenylpyridine-5-carboxylate] | Negative |
| CCC(C)N(C)C(=O)c1cc2ccccc2c(-c2ccccc2Cl)n1 (stereo not drawn) [PK11195, N-(sec-butyl)-1-(2-chlorophenyl)-N-methylisoquinoline3-carboxamide] | Positive |
| COC(=O)[C@H]1[C@@H](c2ccc(I)cc2)C[C@@H]2CC[C@H]1N2CCCF (racemic) [beta-CIT-FP, rac-methyl(1R,2S,3S,5S)-8-(3-fluoropropyl)-3-(4-iodophenyl)-8-azabicyclo[3.2.1]octane-2-carboxylate] | Positive |
| CC[C@]1(O)C[C@@H]2CN(CCc3c([nH]c4ccccc34)[C@@](C(=O)OC)(c3cc4c(cc3OC)N(C)[C@H]3[C@@](O)(C(=O)OC)[C@H](OC(C)=O)[C@]5(CC)C=CCN6CC[C@]43[C@@H]65)C2)C1 [Vinblastine, Dimethyl (2β,3β,4β,5α,12β,19α)-15-[(5S,9S)-5-ethyl-5-hydroxy-9-(methoxycarbonyl)-1,4,5,6,7,8,9,10-octahydro-2 H-3,7-methanoazacycloundecino [5,4-b]indol-9-yl]-3-hydroxy-16-methoxy-1-methyl-6,7-didehydroaspidospermidine3,4-dicarboxylate] | Efflux transporter substrate |
| CCN1CCC[C@H]1CNC(=O)c1cc(I)cc(OC)c1OC [Epidepride, (S)-N-((1-ethylpyrrolidin-2-yl)methyl)-5-iodo-2,3-dimethoxybenzamide] | Positive |
| CN/C(=C\[N+](=O)[O-])NCCSCc1ccc(CN(C)C)o1 [Ranitidine, (E)-N-{2-[({5-[(Dimethylamino)methyl]-2-furyl}methyl)sulfanyl]ethyl}-N′-methyl-2-nitro-1,1-ethenediamine] | Efflux transporter substrate |
| C[C@@](Cc1ccc(O)c(O)c1)(NN)C(=O)O [Carbidopa, (2S)-3-(3,4-Dihydroxyphenyl)-2-hydrazino-2-methylpropanoic acid] | Negative |
| N[C@@H](CC(=O)N1CCn2c(nnc2C(F)(F)F)C1)Cc1cc(F)c(F)cc1F [Sitagliptin, (3R)-3-Amino-1-[3-(trifluoromethyl)-5,6-dihydro[1,2,4]triazolo[4,3-a]pyrazin-7(8H)-yl]-4-(2,4,5-trifluorophenyl)-1-butanone] | Negative |
| CCOC(=O)c1cncn1[C@H](C)c1ccccc1 [Etomidate, (R)-ethyl 1-(1-phenylethyl)-1H-imidazole-5-carboxylate] | Positive |
| CC[C@H]1OC(=O)[C@H](C)[C@@H](O[C@H]2C[C@@](C)(OC)[C@@H](O)[C@H](C)O2)[C@H](C)[C@@H](O[C@@H]2O[C@H](C)C[C@H](N(C)C)[C@H]2O)[C@](C)(OC)C[C@@H](C)C(=O)[C@H](C)[C@@H](O)[C@]1(C)O (mixture of isomers) [Clarithromycin, rac-(3R,4S,5S,6R,7R,9R,11R,12R,13S,14R)-6-(((2S,3R,4S,6R)-4-(dimethylamino)-3-hydroxy-6-methyltetrahydro-2H-pyran-2-yl)oxy)-14-ethyl-12,13-dihydroxy-4-(((2R,4R,5S,6S)-5-hydroxy-4-methoxy-4,6-dimethyltetrahydro-2H-pyran-2-yl)oxy)-7-methoxy-3,5,7,9,11,13-hexamethyloxacyclotetradecane-2,10-dione] | Negative |
| COc1cccc2c1C(=O)c1c(O)c3c(c(O)c1C2=O)C[C@@](O)(C(=O)CO)C[C@@H]3O[C@H]1C[C@H](N)[C@H](O)[C@H](C)O1 [Doxorubicin, (1S,3S)-3-Glycoloyl-3,5,12-trihydroxy-10-methoxy-6,11-dioxo-1,2,3,4,6,11-hexahydro-1-tetracenyl 3-amino-2,3,6-trideoxy-α-L-lyxo-hexopyranoside] | Efflux transporter substrate |
| COc1ccccc1N1CCN(CCN(C(=O)C2CCCCC2)c2ccccn2)CC1 [WAY-100635, N-(2-(4-(2-methoxyphenyl)piperazin-1-yl)ethyl)-N-(pyridin-2-yl)] | Positive |
| CCC1=C(C)CN(C(=O)NCCc2ccc(S(=O)(=O)NC(=O)N[C@H]3CC[C@H](C)CC3)cc2)C1=O [Glimepiride, 3-Ethyl-4-methyl-N-[2-(4-{[(trans-4-methylcyclohexyl)carbamoyl]sulfamoyl}phenyl)ethyl]-2-oxo-2,5-dihydro-1H-pyrrole-1-carboxamide] | Negative |
| COCC1=C(C(=O)OC)[C@H](c2ccc(F)c(F)c2)N(C(=O)NCCCN2CCC(c3cccc(NC(C)=O)c3)CC2)C(=O)N1 [SNAP7941, methyl 3-((3-(4-(3-acetamidophenyl)piperidin-1-yl)propyl)carbamoyl)-4-(3,4-difluorophenyl)-6-(methoxymethyl)-2-oxo-1,2,3,4-tetrahydropyrimidine-5-carboxylate] | Efflux transporter substrate |
| CS(=O)(=O)c1ccc(C2=C(c3ccccc3)C(=O)OC2)cc1 [Rofecoxib, 4-[4-(Methylsulfonyl)phenyl]-3-phenyl2(5H)-furanone] | Negative |
| COc1cccc2c1C(=O)c1c(O)c3c(c(O)c1C2=O)C[C@@](O)(C(C)=O)C[C@@H]3O[C@H]1C[C@H](N)[C@H](O)[C@H](C)O1 [Daunorubicin, (1S,3S)-3-Acetyl-3,5,12-trihydroxy-10-methoxy-6,11-dioxo-1,2,3,4,6,11-hexahydro-1-tetracenyl 3-amino-2,3,6-trideoxy-α-L-lyxo-hexopyranoside] | Efflux transporter substrate |
| CN/C(=N/CCSCc1nc[nH]c1C)NC#N [Cimetidine, 1-Cyano-2-methyl-3-(2-{[(4-methyl-1H-imidazol5-yl)methyl]sulfanyl}ethyl)guanidine] | Efflux transporter substrate |
| CC(C)NCC(O)c1ccc(NS(C)(=O)=O)cc1 (stereo not drawn) [Sotalol, N-{4-[1-Hydroxy-2-(isopropylamino)ethyl]phenyl}methanesulfonamide] | Negative |
| COC(=O)[C@H]1[C@@H](c2ccc(I)cc2)C[C@@H]2CC[C@H]1N2C/C=C/I [IPCIT, (1R,2S,3S,5S)-methyl 8-((E)-3-iodoallyl)-3-(4-iodophenyl)-8-azabicyclo[3.2.1]octane-2-carboxylate] | Positive |
| CNc1ccc(-c2nc3ccc(O)cc3s2)cc1F [Flutemetamol, 2-(3-fluoro-4-(methylamino)phenyl)benzo[d]thiazol-6-ol] | Positive |
| C[N+]1(CC2CC2)CC[C@]23c4c5ccc(O)c4O[C@H]2C(=O)CC[C@@]3(O)C1C5 (stereo in doubt) [Methylnaltrexone bromide, (3S,4S,4aS,7aR,12bS)-3-(cyclopropylmethyl)-4a,9-dihydroxy-3-methyl-7-oxo-2,3,4,4a,5,6,7,7a-octahydro-1H-4,12-methanobenzofuro[3,2-e]isoquinolin-3-ium] | Negative |
| Cc1ccc([C@H]2C[C@@H]3CC[C@H]([C@H]2C(=O)OCCF)N3C/C=C/I)cc1 [FE-PE2i, 2-fluoroethyl (1R,2S,3S,5S)-8-((E)-3-iodoallyl)-3-(p-tolyl)-8-azabicyclo[3.2.1]octane-2-carboxylate] | Positive |
| CN(C)Cc1ccccc1Sc1ccc(C#N)cc1N [DASB, 3-Amino-4-((2-((dimethylamino)methyl)phenyl)thio)benzonitrile] | Positive |
| COC(=O)C1=C(C)NC(C)=C(C(=O)OCCN(C)Cc2ccccc2)C1c1cccc([N+](=O)[O-])c1 (stereo not drawn) [Nicardipine, 2-[Benzyl(methyl)amino]ethyl methyl 2,6-dimethyl-4-(3-nitrophenyl)-1,4-dihydro-3,5-pyridinedicarboxylate] | Efflux transporter substrate |
